Consider 28 compounds from PubChem BioAssay (NCI).

Assay in all cases: NCI anticancer screen, dose series, 48 h
The subject of assay [1] is TK-10 renal.
Assay [2] concerns MALME-3M melanoma.
Assay [3] concerns SR leukemia.
For assay [4], the system named is SNB-19 CNS.
Assay [5] deals with HCC-2998 colon.
In assay [6] the test system is HOP-62 NSCLC.
Assay [7] deals with HCT-116 colon.
The subject of assay [8] is SK-MEL-2 melanoma.
The test system of assay [9] is NCI/ADR-RES ovarian.
In assay [10] the test system is EKVX NSCLC.
Assay [11] deals with HS 578T breast.

Values joined by “and” are separate entries in the source; they are usually repeats but may differ in a detail not shown here. Identical values can stand only once.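 In this assay, cells in 96-well plates receive the compound at five concentrations for 48 hours. Endpoints are linearly interpolated between the surrounding concentrations. GI50: concentration for 50% inhibition of growth. TGI: total growth inhibition.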

As for `Cc1cccc(N=NC(=O)NNc2cccc(C)c2C)c1C`, the TGI in assay [1] was greater than 100 µM; in assay [2] it was 73.3 µM; in assay [3], greater than 100 µM; in [4], greater than 100 µM; in assay [5], 31.7 µM; in assay [6], 86.7 µM. Besides, the TGI turned out to be 72.2 µM in assay [7] and 46.7 µM in [8].
Consider `Cc1c(S(=O)(=O)/N=C(\NO)Nc2ccc(Cl)c(Cl)c2)sc2ccc(Cl)cc12`, for which the TGI in assay [1] came out at 34.4 µM; in [9], 41.7 µM; in assay [2] it was 42.6 µM; in assay [10], 27.4 µM; in [11], 80.9 µM; in [4] it was 45.1 µM. Also, the TGI was determined as 44.6 µM in [5], 42.3 µM in [6], 37 µM in assay [7] and 38.6 µM in [8].
On to `NC(N)=NCCC[C@H](N)C(=O)NCC(=O)N[C@@H](CC(=O)O)c1ncc(NC(=O)C(F)(F)F)o1`, for which the TGI in assay [1], in assay [9], in assay [2], in assay [10], in assay [11] and in assay [5] was greater than 25 µM each time. The TGI in [6], in [7] and in [8] was greater than 25 µM in each case.
With `O=C(NI1OC(=O)c2ccccc21)c1ccc(Cl)cc1`, the TGI in assay [1], in assay [9], in [10], in assay [5], in [6] and in assay [7] was greater than 100 µM each time. The same compound displayed a TGI in [8] greater than 100 µM.
`CCN(CC)CCNc1nc2ccc([N+](=O)[O-])cc2[n+]([O-])n1`: the TGI in assay [1] is greater than 100 µM; in [9], 70.5 µM; in [2] it was 4.28 µM; in assay [3] it was greater than 100 µM; in assay [4] it was greater than 100 µM; in [5], 44.8 µM. Also, the figures for the TGI in assay [7] and in assay [8] were 49.6 µM and 35.3 µM, respectively.
Consider `O=c1[nH]nc(-c2ccccc2)c2[nH]c3c4ccccc4ccc3c12`, for which the TGI in assay [2] is greater than 100 µM; in assay [3], greater than 100 µM; in assay [10], greater than 100 µM; in [4] it was greater than 100 µM; in assay [5], 4.81 µM; in assay [6], greater than 100 µM. Besides, the TGI in assay [7] and in assay [8] was greater than 100 µM throughout.
As to `CC12C(=O)CC(CC1=O)C2(C)C`, the TGI in [1], in assay [9], in assay [2], in assay [10], in [11] and in [4] was greater than 100 µM each time. Also, the TGI in assay [6], in assay [7] and in [8] was greater than 100 µM throughout.
Turning to `O=C(c1ccc(N=Cc2ccccc2O)cc1)c1ccc(N=Cc2ccccc2O)cc1`, the TGI in assay [1], in [9], in [2], in [3], in assay [10] and in assay [4] was greater than 100 µM throughout. The TGI in [5], in assay [6], in assay [7] and in assay [8] was greater than 100 µM each time.
As for `N#CC(NC12CC3CC(CC(C3)C1)C2)c1ccccc1C(F)(F)F` (centres undefined), the TGI in assay [1], in assay [2], in assay [3], in assay [10], in assay [4] and in [5] was greater than 100 µM throughout. Besides, the TGI in assay [6], in assay [7] and in [8] was greater than 100 µM each time.
`CC1NC(=O)CC(c2ccccc2)N(N=O)C1c1ccccc1` (centres undefined): the TGI in assay [9] was greater than 62.9 µM; in [2], greater than 100 µM; in [10], greater than 100 µM; in assay [4] it was greater than 91.3 µM; in [5], greater than 100 µM; in assay [6], greater than 92.7 µM. Besides, the TGI in [7] was greater than 100 µM; in assay [8], greater than 85.9 µM.
In the case of `O=C1CCC(c2ccc(Cl)cc2)=NN1c1nsc2ccccc12`, the TGI in assay [1] is greater than 100 µM; in [3], 54.8 µM; in assay [10], 88.5 µM; in [4], greater than 100 µM; in [5] it was 44.8 µM; in [6] it was greater than 100 µM. Besides, the TGI was determined as 51.2 µM in assay [7] and 38.7 µM in [8].
On to `CC(=O)OC(/C=C/c1ccccc1)=C(OC(C)C)/C1=C(\c2ccccc2)SCCCSC1=O`, for which the TGI in assay [1], in assay [9], in [2], in assay [10], in [11] and in assay [4] was greater than 100 µM throughout. The TGI in assay [5], in assay [6], in [7] and in assay [8] was greater than 100 µM each time.
Take `NN/C(=N\S(=O)(=O)c1cc2ccccc2s1)Nc1ccc(Cl)cc1`: the TGI in [1] came out at 51.2 µM; in assay [9] it was 46.4 µM; in [3], 73.9 µM; in assay [10], 42.2 µM; in assay [4] it was 64.6 µM; in [6] it was 38.2 µM. The TGI in assay [7] turned out to be 30.6 µM; in assay [8] it was 34.5 µM.
Regarding `O=C1C=C(C2=CC(=O)C(=O)c3ccccc32)c2ccccc2C1=O`, the TGI in [1] was 75.4 µM; in assay [9], greater than 100 µM; in assay [2] it was greater than 100 µM; in assay [10], greater than 100 µM; in assay [11], 90.7 µM; in assay [4], 53.2 µM. Moreover, the TGI was determined as 64.6 µM in [6], 50.1 µM in assay [7] and 72.3 µM in assay [8].
Consider `O=P(Nc1ccc(Cl)cc1)(Oc1ccccc1)N(CCCl)CCCl` (centres undefined), for which the TGI in assay [1], in assay [2], in [3], in assay [10], in assay [5] and in [6] was greater than 100 µM each time. The TGI in assay [7] and in [8] was greater than 100 µM throughout.
Take `COc1cc(/C=C(\C#N)C(N)=O)cc(Br)c1O`: the TGI in assay [9], in assay [2], in assay [10], in assay [4], in assay [5] and in assay [6] was greater than 100 µM in each case. Moreover, the TGI in assay [7] and in [8] was greater than 100 µM in each case. For the same compound, in assay [10], the GI50 was 45.8 µM and > 100 µM.
For the compound `NC(Cc1ccccc1)C(=O)N[C@H]1c2ccsc2/C(=N/O)[C@H]1O` (some centres undefined), the TGI in assay [1], in assay [9], in assay [2], in [3], in assay [10] and in [5] was greater than 100 µM in each case. The TGI in assay [6], in [7] and in [8] was greater than 100 µM each time.
Take `Oc1c(CN2CCOCC2)ccc2cccnc12`: the TGI in assay [1] was greater than 10 µM; in [9] it was 6.6 µM; in [2], greater than 10 µM; in [10] it was greater than 10 µM; in [11] it was greater than 10 µM; in [4], greater than 10 µM. The TGI in [5], in assay [6], in assay [7] and in assay [8] was greater than 10 µM each time.
Turning to `C=CCCN1CCc2c([nH]c3ccccc23)C1C(=O)O` (centres undefined), the TGI in assay [1], in assay [2], in [3], in [10], in assay [4] and in [5] was greater than 100 µM in each case. Moreover, the TGI in [6], in assay [7] and in [8] was greater than 100 µM each time.
In the case of `COc1ccc(C(=C(Cl)c2ccccc2)c2ccc(OC)cc2)cc1`, the TGI in assay [1], in assay [9], in assay [2], in assay [10], in assay [11] and in assay [4] was greater than 100 µM throughout. Besides, the TGI in [6], in assay [7] and in assay [8] was greater than 100 µM in each case.
Take `CCOc1cn(C2CC(O)C(CO)O2)c(=O)[nH]c1=O` (centres undefined): the TGI in assay [1], in assay [9], in assay [2], in [10], in assay [11] and in assay [4] was greater than 100 µM throughout. Further, the TGI in assay [5], in assay [6], in assay [7] and in assay [8] was greater than 100 µM throughout.
`Nc1nc(N)c2ncn(-c3ccc(Cl)cc3)c2n1`: the TGI in assay [1], in [9], in assay [2], in assay [10], in assay [5] and in assay [6] was greater than 100 µM each time. For the same compound, the TGI in [7] and in assay [8] was greater than 100 µM each time.
Take `CNc1ccc(C(=O)CC(O)CCC(C)C2OC(=O)CC(O)CC(=O)CC(O)CC(O)CC(O)CC(O)CC3(O)CC(O)C(C(=O)OC)C(CC(O[C@@H]4O[C@H](C)[C@@H](O)[C@H](N)[C@@H]4O)/C=C/C=C/C=C/C=C/C=C/C=C/C=C/C2C)O3)cc1` (some centres undefined): the GI50 in [3] was 2.33 µM; in assay [4], 3.82 µM; in assay [5] it was 3.25 µM; in assay [6], 2.27 µM; in assay [7], 3.46 µM; in assay [8] it was 3.59 µM. Moreover, the TGI in assay [3] was 5.47 µM; in [4] it was greater than 100 µM; in assay [5], 12.3 µM; in assay [6], 5.03 µM; in [7], greater than 100 µM; in [8], 8.86 µM.
`COC1C=CC(O)C(CO)O1` (centres undefined): the TGI in [1], in assay [2], in assay [3], in [10], in assay [5] and in [6] was greater than 100 µM throughout. Further, the TGI in [7] and in assay [8] was greater than 100 µM each time.
In the case of `NC(N)=N/N=C/c1c[nH]c2ccccc12`, the TGI in assay [1], in assay [2], in [3], in assay [10], in assay [4] and in assay [5] was greater than 100 µM throughout. Besides, the TGI in assay [6] and in [8] was greater than 100 µM each time.
With `Cc1ccc(-c2c(C#N)c(-c3ccc(Cl)cc3)c(C#N)c(=O)n2NS(=O)(=O)c2ccc(C)cc2)cc1`, the TGI in assay [1] was greater than 100 µM; in assay [9] it was 49.6 µM; in assay [2], greater than 100 µM; in [10], greater than 100 µM; in assay [4], greater than 100 µM; in assay [5], 74.9 µM. For the same compound, the TGI was greater than 100 µM in assay [6], 50.6 µM in assay [7] and 40.4 µM in assay [8].
For `COC[C@@H](C[C@H]1O[C@@](O)([C@H](O)[C@@H]2C[C@H](OC)[C@@H](O)CC/C=C(C)/C=C/[C@@H](O[C@@H]3O[C@@H](C)[C@H](OC)[C@@H](O)[C@@H]3O)[C@H](C)/C=C(C)/C=C(C)/C=C(\C)C(=O)O2)[C@H](C)[C@@H](O)[C@H]1C)O[C@H]1C[C@](C)(O)[C@@H](O[C@H]2C[C@@H](OC)[C@H](O)[C@@H](C)O2)C(C)O1` (some centres undefined), the TGI was greater than 100 µM in [1]; greater than 100 µM in [9]; greater than 55.5 µM in [2]; greater than 55.9 µM in [10]; greater than 100 µM in assay [11]; greater than 100 µM in assay [4]. In addition, the TGI in [5], in assay [6], in assay [7] and in [8] was greater than 100 µM in each case.
For the compound `OCC(O)COCn1nncc1Cn1ncc2c(SCc3ccccc3)ncnc21` (centres undefined), the TGI was greater than 100 µM in assay [1]; greater than 100 µM in assay [9]; greater than 100 µM in assay [10]; 25.7 µM in assay [11]; greater than 100 µM in assay [4]; greater than 100 µM in assay [5]. For the same compound, the TGI in assay [6], in [7] and in assay [8] was greater than 100 µM throughout.
